Laboratory results: patent publication US5468742A, “8-vinyl- and 9-ethinyl-quinolone-carboxylic acids” (Bayer Aktiengesellschaft, priority 1991, dated 1995)
Converted amounts (≈) assume the structure as drawn. Read-outs that look alike come from different tables or passages of the source.

What was measured:
Experiment in all cases: MIC, serial dilution on Iso-Sensitest agar
Format in all cases: cell-based
[1] = system: Acinetobacter calcoaceticus 14068
Protocol: (§1) The minimum inhibitory concentrations (MIC) were determined on Iso-Sensitest agar (Oxoid) using the serial dilution method. For each test substance, a series of agar plates was prepared which contained concentrations of the active compound which decreased as the dilution was doubled. The agar plates were inoculated using a multipoint inoculator (Denley). The inocula used were overnight cultures of the pathogens which had previously been diluted to such an extent that each inoculation point contained approx. 10^4 colony-forming units. The inoculated agar plates were incubated at 37° C., and growth of the pathogens was determined after approx. 20 hours. The MIC value (μg/ml) indicates the lowest concentration of active compound where no growth was discernible to the naked eye.
(§2) The table below lists the MIC values of some of the compounds according to the invention compared with ciprofloxacin.

E. coli Neumann = conditions: Escherichia coli
Protocol: as §1, §2

[2] = system: Enterococcus faecalis 27101
Protocol: as §1, §2

[3] = system: Enterococcus faecalis 9790
Protocol: as §1, §2

Micrococcus luteus 9341 = system: Micrococcus luteus 9341
Protocol: as §1, §2

[4] = system: Staphylococcus aureus 133
Protocol: as §1, §2

[5] = system: Staphylococcus aureus 1756
Protocol: as §1, §2

[6] = system: Staphylococcus aureus ICB 25701
Protocol: as §1, §2

[7] = Acinetobacter calcoaceticus 14068, approx. 10^4 CFU per inoculation point, 37° C., approx. 20 hours, read-out: MIC
[8] = E. coli Neumann, approx. 10^4 CFU per inoculation point, 37° C., approx. 20 hours, read-out: MIC
[9] = Enterococcus faecalis 27101, approx. 10^4 CFU per inoculation point, 37° C., approx. 20 hours, read-out: MIC
[10] = Enterococcus faecalis 9790, approx. 10^4 CFU per inoculation point, 37° C., approx. 20 hours, read-out: MIC
[11] = Micrococcus luteus 9341, approx. 10^4 CFU per inoculation point, 37° C., approx. 20 hours, read-out: MIC
[12] = Staphylococcus aureus 133, approx. 10^4 CFU per inoculation point, 37° C., approx. 20 hours, read-out: MIC
[13] = Staphylococcus aureus 1756, approx. 10^4 CFU per inoculation point, 37° C., approx. 20 hours, read-out: MIC
[14] = ICB25701, Staphylococcus aureus ICB 25701, approx. 10^4 CFU per inoculation point, 37° C., approx. 20 hours, read-out: MIC

SMILES | MIC [1, 7] [µg/mL] | MIC (E. coli Neumann; [8]) [µg/mL] | MIC [2, 9] [µg/mL] | MIC [3, 10] [µg/mL] | MIC (Micrococcus luteus 9341; [11]) [µg/mL] | MIC [4, 12] [µg/mL] | MIC [5, 13] [µg/mL] | MIC [6, 14] [µg/mL] | MIC ([1]; Acinetobacter calcoaceticus, 14068, 20 h) [µg/mL] | MIC (E. coli Neumann; 20 h) [µg/mL] | MIC ([2]; Enterococcus faecalis, 27101, 20 h) [µg/mL] | MIC ([3]; Enterococcus faecalis, 9790, 20 h) [µg/mL] | MIC (Micrococcus luteus 9341; Micrococcus luteus, 9341, 20 h) [µg/mL] | MIC ([4]; Staphylococcus aureus, 133, 20 h) [µg/mL] | MIC ([5]; Staphylococcus aureus, 1756, 20 h) [µg/mL] | MIC ([6]; Staphylococcus aureus, ICB25701, 20 h) [µg/mL]
C=C(Cl)c1c(N2CCN(C)CC2)c(F)cc2c(=O)c(C(=O)O)cn(C3CC3)c12.Cl [Example 17, 8-(1-chlorovinyl)-1-cyclopropyl-6-fluoro-1,4-dihydro-7-(4-methyl-1-piperazinyl)-4-oxo-3-quinolinecarboxylic acid hydrochloride] | 0.03 | 0.03 | 0.25 | 0.25 | 1 | 0.13 | 0.13 | 4 | – | – | – | – | – | – | – | –
O=C(O)c1cn(C2CC2)c2cc(N3CCNCC3)c(F)cc2c1=O [Ciprofloxacin, ciprofloxacin, reference compound] | – | – | – | – | – | – | – | – | 0.25 (≈ 0.754 µM) | 0.02 (≈ 0.0604 µM) | 0.5 (≈ 1.51 µM) | 0.5 (≈ 1.51 µM) | 2 (≈ 6.04 µM) | 0.25 (≈ 0.754 µM) | 0.25 (≈ 0.754 µM) | 16 (≈ 48.3 µM)
C=C(C)C#Cc1c(N2CCN(C)CC2)c(F)cc2c(=O)c(C(=O)O)cn(C3CC3)c12 [Example 14, 1-cyclopropyl-6-fluoro-1,4-dihydro-8-(3-methyl-but-3-en-1-inyl)-7-(4-methyl-1-piperazinyl)-4-oxo-3-quinolinecarboxylic acid] | 0.03 (≈ 0.0733 µM) | 0.02 (≈ 0.0488 µM) | 1 (≈ 2.44 µM) | 1 (≈ 2.44 µM) | 8 (≈ 19.5 µM) | 0.02 (≈ 0.0488 µM) | 0.02 (≈ 0.0488 µM) | 32 (≈ 78.2 µM) | – | – | – | – | – | – | – | –
C#Cc1c(N2CC3CC=CC(NC)C3C2)c(F)cc2c(=O)c(C(=O)O)cn(C3CC3)c12 (centres unmarked) [Example 13, 1-cyclopropyl-8-ethinyl-6-fluoro-1,4-dihydro-7-(4-methylamino-1,3,3a,4,7,7a-hexahydroisoindol-2-yl)-4-oxo-3-quinolinecarboxylic acid] | 0.13 (≈ 0.308 µM) | 0.13 (≈ 0.308 µM) | 0.13 (≈ 0.308 µM) | 0.13 (≈ 0.308 µM) | 0.25 (≈ 0.593 µM) | 0.06 (≈ 0.142 µM) | 0.06 (≈ 0.142 µM) | 0.25 (≈ 0.593 µM) | – | – | – | – | – | – | – | –
C#Cc1c(N2CCN(C)CC2)c(F)cc2c(=O)c(C(=O)O)cn(C3CC3)c12 [Example 1, 1-cyclopropyl-8-ethinyl-6-fluoro-1,4-dihydro-7-(4-methyl-1-piperazinyl)-4-oxo-3-quinolinecarboxylic acid] | – | 0.02 (≈ 0.0541 µM) | 0.25 (≈ 0.677 µM) | 0.25 (≈ 0.677 µM) | – | 0.13 (≈ 0.352 µM) | 0.13 (≈ 0.352 µM) | 4 (≈ 10.8 µM) | – | – | – | – | – | – | – | –

Further lines, with some results ahead:

MIC [1, 7] [µg/mL] | MIC (E. coli Neumann; [8]) [µg/mL] | MIC [2, 9] [µg/mL] | MIC [3, 10] [µg/mL] | MIC (Micrococcus luteus 9341; [11]) [µg/mL] | MIC [4, 12] [µg/mL] | MIC [5, 13] [µg/mL] | MIC [6, 14] [µg/mL] | SMILES | MIC ([1]; Acinetobacter calcoaceticus, 14068, 20 h) [µg/mL] | MIC (E. coli Neumann; 20 h) [µg/mL] | MIC ([2]; Enterococcus faecalis, 27101, 20 h) [µg/mL] | MIC ([3]; Enterococcus faecalis, 9790, 20 h) [µg/mL] | MIC (Micrococcus luteus 9341; Micrococcus luteus, 9341, 20 h) [µg/mL] | MIC ([4]; Staphylococcus aureus, 133, 20 h) [µg/mL] | MIC ([5]; Staphylococcus aureus, 1756, 20 h) [µg/mL] | MIC ([6]; Staphylococcus aureus, ICB25701, 20 h) [µg/mL]
0.25 (≈ 0.629 µM) | 0.13 (≈ 0.327 µM) | 0.25 (≈ 0.629 µM) | 0.25 (≈ 0.629 µM) | 1 (≈ 2.52 µM) | 0.06 (≈ 0.151 µM) | 0.06 (≈ 0.151 µM) | 1 (≈ 2.52 µM) | C#Cc1c(N2CC3NCCOC3C2)c(F)cc2c(=O)c(C(=O)O)cn(C3CC3)c12 (centres unmarked) [Example 7, 1-cyclopropyl-8-ethinyl-6-fluoro-1,4-dihydro-7-(2-oxa-5,8-diazabicyclo[4.3.0]non-8-yl)-4-oxo-3-quinolinecarboxylic acid] | – | – | – | – | – | – | – | –
0.03 (≈ 0.0759 µM) | 0.02 (≈ 0.0506 µM) | 0.13 (≈ 0.329 µM) | 0.13 (≈ 0.329 µM) | 0.5 (≈ 1.26 µM) | 0.13 (≈ 0.329 µM) | 0.03 (≈ 0.0759 µM) | 1 (≈ 2.53 µM) | C#Cc1c(N2C[C@@H]3CCCN[C@@H]3C2)c(F)cc2c(=O)c(C(=O)O)cn(C3CC3)c12 (relative stereo) [Example 5, 1-cyclopropyl-7-(cis-2,8-diazabicyclo[4.3.0]non-8-yl)-8-ethinyl-6-fluoro-1,4-dihydro-4-oxo-3-quinolinecarboxylic acid] | – | – | – | – | – | – | – | –
0.5 (≈ 1.22 µM) | 0.25 (≈ 0.608 µM) | 0.5 (≈ 1.22 µM) | 1 (≈ 2.43 µM) | 2 (≈ 4.86 µM) | 0.13 (≈ 0.316 µM) | 0.13 (≈ 0.316 µM) | 4 (≈ 9.72 µM) | CC#Cc1c(N2CC3NCCOC3C2)c(F)cc2c(=O)c(C(=O)O)cn(C3CC3)c12 (centres unmarked) [Example 8, 1-cyclopropyl-6-fluoro-1,4-dihydro-7-(2-oxa-5,8-diazabicyclo[4.3.0]non-8-yl)-4-oxo-8-(propin-1-yl)-3-quinolinecarboxylic acid] | – | – | – | – | – | – | – | –
